Source: patent publication US10308631B2, “Selective anti-cancer compounds” (NATIONAL UNIVERSITY OF SINGAPORE, priority 2015, dated 2019)

Tested on: non-transformed normal BJ cells
Assay: Reversibility of cell cycle arrest after wash-out (cell counting)
Type: cell-based, human
Conditions: 5 μM for 2, 3, 6 or 11 days, then wash-out
Excerpt: Non-transformed normal BJ cells were synchronized in G1 phase of the cell cycle by culturing in serum-starved conditions (0.1% FBS) for 2 days. Subsequently, cells were synchronously released in fresh media with 10% FBS and further treated with Compound 1 (a131) for 2, 3, 6 or 11 days. After treatment for the required amount of time, Compound 1 (a131) was removed by washing cells twice with fresh media, and culturing of the washed cells was continued in fresh media for up to 11 days. Cells were harvested and total numbers of cells, counted using automated Sceptor cell counter, were plotted with standard deviation (triplicates).
As shown in Biology Examples 5 and 7, Compound 1 and its derivatives, which inhibit both lysosome function and mitosis, induce cell death only in transformed BJ cells, while inducing cell cycle arrest in isogenic non-transformed BJ cells. However, it was not fully clear if the cell cycle arrest was permanent or reversible. Therefore, to evaluate whether the effect was permanent or reversible, non-transformed normal BJ cells were synchronized in the G1 phase of the cell cycle by culturing them in DMEM media with 0.1% FBS for 2 days. […] At various time-points, the adherent cells were harvested with trypsin (Invitrogen) and the total number of cells was counted using automated Sceptor cell counter (Millipore).

## N#C/C(=C\c1cccc2cnccc12)c1c[nH]c2ccccc12 [Compound 1, (Z)-2-(1H-indol-3-yl)-3-(isoquinolin-5-yl)acrylonitrile]
  recovery of proliferation after removal of compound: removal of Compound 1 from the media is sufficient to enable these cells to recover from cell cycle arrest
